Experimental data reported in patent US12065436B2, “Cardiac sarcomere inhibitors” (Cytokinetics, Inc., priority 2018, dated 2024).

Molecular target: bovine cardiac myofibrils (full-length cardiac myosin ATPase in the native sarcomere) (Bos taurus (Bovine), UniProt Q9BE39)
Assay: Skinned bovine cardiac myofibril ATPase assay (PK/LDH-coupled)
Type: biochemical
Details: Ca2+ activating to 75% of maximal rate; for CDMF75 IC15: concentration giving 15% inhibition; for IC50: read-out: CDMF75 IC50
Procedure: To evaluate the effect of compounds on the ATPase activity of full-length cardiac myosin in the context of the native sarcomere, skinned myofibril assays were performed. Bovine cardiac myofibrils were obtained by homogenizing bovine cardiac left ventricular tissue in the presence of a detergent such as triton X-100. Such treatment removes membranes and a majority of the soluble cytoplasmic proteins but leaves intact the cardiac sarcomeric acto-myosin apparatus. Myofibril preparations retain the ability to hydrolyze ATP in an Ca^2+ regulated manner. ATPase activities of such myofibril preparations in the presence and absence of compounds were assayed at Ca^2+ concentrations activating to a defined fraction of the maximal rate (i.e., 25%, 75%). Small molecule agents were assessed for their ability to inhibit the steady-state ATPase activity of bovine cardiac myofibrils using pyruvate kinase and lactate dehydrogenase (PK/LDH)-coupled enzyme system. This assay regenerates myosin-produced ADP into ATP by oxidizing NADH, producing an absorbance change at 340 nm. Prior to testing small molecule agents, the bovine cardiac myofibrils were assessed for their calcium responsiveness and the calcium concentration that achieves either a 50% (pCa50) or 75% (pCa75) activation of the myofibril system was chosen as the final condition for assessing the inhibitory activity of the small molecule agents. All enzymatic activity was measured in a buffered solution containing 12 mM PIPES (piperazine-N,N′-bis(2-ethanesulfonic acid), 2 mM magnesium chloride at pH 6.8 (PM 12 buffer). Final assay conditions were 1 mg/mL of bovine cardiac myofibrils, 4 U/mL pyruvate kinase, 6 U/mL lactate dehydrogenase, 50 μM ATP, 0.1 mg/mL BSA (bovine serum albumin), 10 ppm antifoam, 1 mM DTT, 0.5 mM NADH, 1.5 mM PEP, 0.6 mM EGTA, and an amount of CaCl2) sufficient to achieve either 50% or 75% activation of the myofibril ATPase activity.

Sequence of bovine cardiac myofibrils (full-length cardiac myosin ATPase in the native sarcomere) (Q9BE39 whole entry): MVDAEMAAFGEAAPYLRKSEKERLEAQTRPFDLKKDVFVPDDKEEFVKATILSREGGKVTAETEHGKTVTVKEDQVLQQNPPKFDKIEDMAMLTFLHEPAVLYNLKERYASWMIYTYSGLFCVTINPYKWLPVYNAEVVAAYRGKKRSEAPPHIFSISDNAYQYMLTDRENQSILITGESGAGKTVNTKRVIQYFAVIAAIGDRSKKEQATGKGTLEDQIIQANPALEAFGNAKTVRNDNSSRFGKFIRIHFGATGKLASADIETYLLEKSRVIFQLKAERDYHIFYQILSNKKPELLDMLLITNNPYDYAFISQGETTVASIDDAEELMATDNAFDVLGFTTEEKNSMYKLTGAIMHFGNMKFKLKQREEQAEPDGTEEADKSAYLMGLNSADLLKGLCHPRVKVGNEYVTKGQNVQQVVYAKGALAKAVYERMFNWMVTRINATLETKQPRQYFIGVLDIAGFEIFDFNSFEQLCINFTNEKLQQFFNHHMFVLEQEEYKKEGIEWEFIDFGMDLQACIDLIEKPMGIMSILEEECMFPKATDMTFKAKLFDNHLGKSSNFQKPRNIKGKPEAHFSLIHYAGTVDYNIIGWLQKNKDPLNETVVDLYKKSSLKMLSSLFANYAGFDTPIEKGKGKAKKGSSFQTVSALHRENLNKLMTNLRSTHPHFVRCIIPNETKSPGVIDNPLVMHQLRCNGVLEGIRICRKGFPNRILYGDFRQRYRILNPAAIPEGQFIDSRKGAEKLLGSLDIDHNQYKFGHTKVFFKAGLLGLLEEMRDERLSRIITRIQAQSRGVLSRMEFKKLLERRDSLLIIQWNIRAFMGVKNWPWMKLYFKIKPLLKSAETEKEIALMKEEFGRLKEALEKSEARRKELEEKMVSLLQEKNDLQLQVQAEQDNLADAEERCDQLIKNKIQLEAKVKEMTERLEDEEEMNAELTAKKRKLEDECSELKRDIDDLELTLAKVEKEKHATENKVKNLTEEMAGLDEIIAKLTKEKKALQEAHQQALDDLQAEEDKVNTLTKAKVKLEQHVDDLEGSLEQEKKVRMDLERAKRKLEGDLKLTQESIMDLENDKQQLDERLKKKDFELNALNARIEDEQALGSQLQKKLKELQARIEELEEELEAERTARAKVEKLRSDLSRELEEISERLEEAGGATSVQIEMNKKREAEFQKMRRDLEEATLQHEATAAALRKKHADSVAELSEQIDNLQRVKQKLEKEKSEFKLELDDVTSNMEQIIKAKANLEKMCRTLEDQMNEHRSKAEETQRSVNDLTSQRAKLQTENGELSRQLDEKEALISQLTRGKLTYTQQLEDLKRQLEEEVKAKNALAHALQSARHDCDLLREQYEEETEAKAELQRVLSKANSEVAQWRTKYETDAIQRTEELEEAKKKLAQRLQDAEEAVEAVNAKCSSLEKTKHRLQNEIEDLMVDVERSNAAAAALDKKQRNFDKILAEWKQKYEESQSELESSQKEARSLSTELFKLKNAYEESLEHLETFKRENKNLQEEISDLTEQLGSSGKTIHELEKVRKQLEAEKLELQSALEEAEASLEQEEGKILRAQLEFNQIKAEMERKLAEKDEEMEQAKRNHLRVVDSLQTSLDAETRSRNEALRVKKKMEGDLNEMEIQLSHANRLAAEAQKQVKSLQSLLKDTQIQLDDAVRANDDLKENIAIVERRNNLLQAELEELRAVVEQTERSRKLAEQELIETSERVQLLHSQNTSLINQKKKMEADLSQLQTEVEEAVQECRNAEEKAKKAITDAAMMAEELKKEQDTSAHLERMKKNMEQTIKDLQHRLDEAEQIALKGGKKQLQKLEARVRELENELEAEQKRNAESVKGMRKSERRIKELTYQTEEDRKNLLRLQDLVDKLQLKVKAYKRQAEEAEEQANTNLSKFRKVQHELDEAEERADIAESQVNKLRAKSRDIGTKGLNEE
Sequence of bovine cardiac myofibrils (full-length cardiac myosin ATPase in the native sarcomere) (P85100 whole entry partner): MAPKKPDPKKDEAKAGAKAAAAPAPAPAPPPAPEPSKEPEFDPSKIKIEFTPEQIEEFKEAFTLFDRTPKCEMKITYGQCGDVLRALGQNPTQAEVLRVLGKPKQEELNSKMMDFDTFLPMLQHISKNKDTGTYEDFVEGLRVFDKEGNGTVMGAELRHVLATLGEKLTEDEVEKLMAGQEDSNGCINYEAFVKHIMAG
Sequence of bovine cardiac myofibrils (full-length cardiac myosin ATPase in the native sarcomere) (Q3SZE5 whole entry partner): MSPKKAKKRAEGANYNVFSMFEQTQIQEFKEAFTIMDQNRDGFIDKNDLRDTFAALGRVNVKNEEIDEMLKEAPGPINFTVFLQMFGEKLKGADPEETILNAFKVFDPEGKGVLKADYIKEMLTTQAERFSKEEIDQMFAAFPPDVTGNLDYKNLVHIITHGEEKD

CDMF75 IC15	IC50	SMILES
2.3 µM	10.1 µM	Cc1csc(C(=O)NC2CCc3cc(-c4noc(C)n4)ccc32)n1 (stereo not shown) [Compound 63, 4-methyl-N-(5-(5-methyl-1,2,4-oxadiazol-3-yl)-2,3-dihydro-1H-inden-1-yl)thiazole-2-carboxamide]
1.2 µM	5.1 µM	Cc1nc(-c2ccc3c(c2)CCC3NC(=O)c2nnn(C)n2)no1 (stereo not shown) [Compound 64, 2-methyl-N-(5-(5-methyl-1,2,4-oxadiazol-3-yl)-2,3-dihydro-1H-inden-1-yl)-2H-tetrazole-5-carboxamide]
0.8 µM	3 µM	Cc1nc(-c2ccc3c(c2)CCC3NC(=O)c2ccnn2C)no1 (stereo not shown) [Compound 65, 1-methyl-N-(5-(5-methyl-1,2,4-oxadiazol-3-yl)-2,3-dihydro-1H-inden-1-yl)-1H-pyrazole-5-carboxamide]
1.2 µM	4.5 µM	Cc1nc(-c2ccc3c(c2)CC[C@H]3NC(=O)c2cnn(C)c2)no1 [Compound 66, (R)-1-methyl-N-(5-(5-methyl-1,2,4-oxadiazol-3-yl)-2,3-dihydro-1H-inden-1-yl)-1H-pyrazole-4-carboxamide]
0.9 µM	4.7 µM	Cc1ccnc(C(=O)NC2CCc3cc(-c4noc(C(F)F)n4)ccc32)c1 (stereo not shown) [Compound 67, N-(5-(5-(difluoromethyl)-1,2,4-oxadiazol-3-yl)-2,3-dihydro-1H-inden-1-yl)-4-methylpicolinamide]
1.6 µM	6.1 µM	Cc1ccnc(C(=O)NC2CCc3cc(-c4noc(C)n4)ccc32)c1 (stereo not shown) [Compound 68, 4-methyl-N-(5-(5-methyl-1,2,4-oxadiazol-3-yl)-2,3-dihydro-1H-inden-1-yl)picolinamide]
0.6 µM	2.3 µM	Cc1n[nH]cc1C(=O)NC1CCc2cc(-c3noc(C(F)F)n3)ccc21 (stereo not shown) [Compound 69, N-(5-(5-(difluoromethyl)-1,2,4-oxadiazol-3-yl)-2,3-dihydro-1H-inden-1-yl)-3-methyl-1H-pyrazole-4-carboxamide]
1.4 µM	4.8 µM	Cc1nc(-c2ccc3c(c2)CCC3NC(=O)c2c[nH]nc2C)no1 (stereo not shown) [Compound 70, 3-methyl-N-(5-(5-methyl-1,2,4-oxadiazol-3-yl)-2,3-dihydro-1H-inden-1-yl)-1H-pyrazole-4-carboxamide]
0.4 µM	1.2 µM	Cc1n[nH]cc1C(=O)N[C@@H]1CCc2cc(-c3noc(C(F)F)n3)ccc21 [Compound 71, (R)-N-(5-(5-(difluoromethyl)-1,2,4-oxadiazol-3-yl)-2,3-dihydro-1H-inden-1-yl)-3-methyl-1H-pyrazole-4-carboxamide]
0.3 µM	1 µM	Cc1oncc1C(=O)N[C@@H]1CCc2cc(-c3noc(C(F)F)n3)ccc21 [Compound 72, (R)-N-(5-(5-(difluoromethyl)-1,2,4-oxadiazol-3-yl)-2,3-dihydro-1H-inden-1-yl)-5-methylisoxazole-4-carboxamide]
0.7 µM	2.5 µM	Cc1nn(C)cc1C(=O)NC1CCc2cc(-c3noc(C4CC4)n3)ccc21 (stereo not shown) [Compound 73, N-(5-(5-cyclopropyl-1,2,4-oxadiazol-3-yl)-2,3-dihydro-1H-inden-1-yl)-1,3-dimethyl-1H-pyrazole-4-carboxamide]
22.3 µM	> 39.2 µM	CC(=O)OCc1nc(-c2ccc3c(c2)CCC3NC(=O)c2cn(C)nc2C)no1 (stereo not shown) [Compound 74, (3-(1-(1,3-dimethyl-1H-pyrazole-4-carboxamido)-2,3-dihydro-1H-inden-5-yl)-1,2,4-oxadiazol-5-yl)methyl acetate]
0.9 µM	3.1 µM	Cc1nn(C)cc1C(=O)NC1CCc2cc(-c3noc(C(C)C)n3)ccc21 (stereo not shown) [Compound 75, N-(5-(5-isopropyl-1,2,4-oxadiazol-3-yl)-2,3-dihydro-1H-inden-1-yl)-1,3-dimethyl-1H-pyrazole-4-carboxamide]
1.7 µM	6.1 µM	COCc1nc(-c2ccc3c(c2)CCC3NC(=O)c2cn(C)nc2C)no1 (stereo not shown) [Compound 76, N-(5-(5-(methoxymethyl)-1,2,4-oxadiazol-3-yl)-2,3-dihydro-1H-inden-1-yl)-1,3-dimethyl-1H-pyrazole-4-carboxamide]
4.9 µM	26 µM	CC(=O)O[C@@H](C)c1nc(-c2ccc3c(c2)CCC3NC(=O)c2cn(C)nc2C)no1 (stereo partly drawn) [Compound 77, (1S)-1-(3-(1-(1,3-dimethyl-1H-pyrazole-4-carboxamido)-2,3-dihydro-1H-inden-5-yl)-1,2,4-oxadiazol-5-yl)ethyl acetate]
2.6 µM	13.6 µM	COC(=O)c1nc(-c2ccc3c(c2)CCC3NC(=O)c2cn(C)nc2C)no1 (stereo not shown) [Compound 78, methyl 3-(1-(1,3-dimethyl-1H-pyrazole-4-carboxamido)-2,3-dihydro-1H-inden-5-yl)-1,2,4-oxadiazole-5-carboxylate]
4.6 µM	22.7 µM	Cc1nn(C)cc1C(=O)NC1CCc2cc(-c3noc(CO)n3)ccc21 (stereo not shown) [Compound 79, N-(5-(5-(hydroxymethyl)-1,2,4-oxadiazol-3-yl)-2,3-dihydro-1H-inden-1-yl)-1,3-dimethyl-1H-pyrazole-4-carboxamide]
27.5 µM	> 39.2 µM	Cc1nn(C)cc1C(=O)NC1CCc2cc(-c3noc([C@H](C)O)n3)ccc21 (stereo partly drawn) [Compound 80, N-(5-(5-((S)-1-hydroxyethyl)-1,2,4-oxadiazol-3-yl)-2,3-dihydro-1H-inden-1-yl)-1,3-dimethyl-1H-pyrazole-4-carboxamide]
1.1 µM	3.7 µM	Cn1nnc(C(=O)NC2CCc3cc(-c4noc(C(F)F)n4)ccc32)n1 (stereo not shown) [Compound 81, N-(5-(5-(difluoromethyl)-1,2,4-oxadiazol-3-yl)-2,3-dihydro-1H-inden-1-yl)-2-methyl-2H-tetrazole-5-carboxamide]
1.9 µM	7.8 µM	Cn1ncc(C(=O)NC2CCc3cc(-c4noc(C(F)F)n4)ccc32)n1 (stereo not shown) [Compound 83, N-(5-(5-(difluoromethyl)-1,2,4-oxadiazol-3-yl)-2,3-dihydro-1H-inden-1-yl)-2-methyl-2H-1,2,3-triazole-4-carboxamide]
2.7 µM	10.8 µM	Cc1nc(C(=O)NC2CCc3cc(-c4noc(C(F)F)n4)ccc32)no1 (stereo not shown) [Compound 84, N-(5-(5-(difluoromethyl)-1,2,4-oxadiazol-3-yl)-2,3-dihydro-1H-inden-1-yl)-5-methyl-1,2,4-oxadiazole-3-carboxamide]
5.5 µM	24.1 µM	Cc1nc(-c2ccc3c(c2)CCC3NC(=O)Nc2ccncc2)no1 (stereo not shown) [Compound 85, 1-(5-(5-methyl-1,2,4-oxadiazol-3-yl)-2,3-dihydro-1H-inden-1-yl)-3-(pyridin-4-yl)urea]
3.7 µM	15.7 µM	Cc1nc(C(=O)NC2CCc3cc(-c4noc(C)n4)ccc32)no1 (stereo not shown) [Compound 87, 5-methyl-N-(5-(5-methyl-1,2,4-oxadiazol-3-yl)-2,3-dihydro-1H-inden-1-yl)-1,2,4-oxadiazole-3-carboxamide]
0.7 µM	2.5 µM	Cc1nc(-c2ccc3c(c2)CCC3NC(=O)c2oncc2C)no1 (stereo not shown) [Compound 88, 4-methyl-N-(5-(5-methyl-1,2,4-oxadiazol-3-yl)-2,3-dihydro-1H-inden-1-yl)isoxazole-5-carboxamide]
1.0 µM	3.3 µM	Cc1nc(-c2ccc3c(c2)CCC3NC(=O)c2conc2C)no1 (stereo not shown) [Compound 89, 3-methyl-N-(5-(5-methyl-1,2,4-oxadiazol-3-yl)-2,3-dihydro-1H-inden-1-yl)isoxazole-4-carboxamide]
0.4 µM	1.9 µM	Cc1nn(C)cc1C(=O)N[C@@H]1CCc2cc(-c3noc(C(F)F)n3)ccc21 [Compound 90, (R)-N-(5-(5-(difluoromethyl)-1,2,4-oxadiazol-3-yl)-2,3-dihydro-1H-inden-1-yl)-1,3-dimethyl-1H-pyrazole-4-carboxamide]
0.5 µM	1.8 µM	Cc1c(C(=O)N[C@@H]2CCc3cc(-c4noc(C(F)F)n4)ccc32)cnn1C [Compound 91, (R)-N-(5-(5-(difluoromethyl)-1,2,4-oxadiazol-3-yl)-2,3-dihydro-1H-inden-1-yl)-1,5-dimethyl-1H-pyrazole-4-carboxamide]
0.3 µM	0.8 µM	Cn1nccc1C(=O)N[C@@H]1CCc2cc(-c3noc(C(F)F)n3)ccc21 [Compound 92, (R)-N-(5-(5-(difluoromethyl)-1,2,4-oxadiazol-3-yl)-2,3-dihydro-1H-inden-1-yl)-1-methyl-1H-pyrazole-5-carboxamide]
5.2 µM	26.6 µM	O=C(NC1CCc2cc(-c3noc(C(F)F)n3)cnc21)c1ccccc1 (stereo not shown) [Compound 94, N-(3-(5-(difluoromethyl)-1,2,4-oxadiazol-3-yl)-6,7-dihydro-5H-cyclopenta[b]pyridin-7-yl)benzamide]
